This is an account of results in patent publication US20260209203A1, “Heterocyclic Compounds as Modulators of S1P5” (Celgene Corporation, priority 2022, published 2026).

The EC50 is the concentration at which the effect is half-maximal.

This assay deals with S1P5 (Homo sapiens, UniProt Q9H228). As to the kind of experiment: [35S]-GTPγS functional binding assay on CHO-S1P5 membranes. Type of assay: biochemical. Particulars: membranes of CHO cells expressing recombinant S1P5; measure of S1P5 agonism. The protocol:
CHO cells expressing recombinant S1P5 receptors were cultured in 500 cm^2 culture trays and, once confluent, rinsed and detached with cell-lifting buffer (10 mM HEPES, 154 mM NaCl, 6.85 mM EDTA, pH 7.4). Cells were then pelleted by centrifugation, resuspended, and homogenized in membrane preparation buffer (10 mM HEPES and 10 mM EDTA, pH 7.4) using a Polytron PT 1200E homogenizer (Kinematica, Luzern, Switzerland). Cellular proteins were pelleted by centrifugation at 48,000×g at 4° C. for 30 minutes. The resulting supernatant was discarded, and the pellet was re-suspended again in membrane preparation buffer, homogenized for a second time, and then centrifuged again as described above. The final cellular protein pellet was suspended in ice cold resuspension buffer (10 mM HEPES and 0.1 mM EDTA, pH 7.4), divided into aliquots, and stored at −80° C. until use.
Functional binding assays for [^35S]-GTPγS were performed in 96-well non-binding surface plates with a final volume of 200 μL. The test compounds were serially diluted in DMSO and added to assay plates using a Tecan D300E digital printer with a total volume of 0.4 μL. The control sphingosine-1-phosphate (S1P) was prepared separately by preparing a 400 μM stock solution from a 100 nmol pellet of SIP in 10 mM Na2CO3 with 2% β-cyclodextrin. The serial dilution of S1P was done using complete assay buffer (20 mM HEPES, 10 mM MgCl2, 100 mM NaCl, 1 mM EDTA, 0.1% fatty acid free bovine serum albumin (BSA), and 30 μg/mL saponin, pH 7.4) and transferred to wells already containing 0.4 μL DMSO. All the wells were then loaded to a total volume of 40 μL of complete assay buffer, except the non-specific binding (NSB) wells. For NSB wells, 40 μL/well of 50 μM GTPγS (Sigma Aldrich, cat #G8634, St. Louis, MO) was added to wells containing 0.4 μL of DMSO. The assay was started by the addition of 120 μL/well of CHO—S1P receptor membrane solution containing 40 μg/mL of membrane protein, 16.67 μM guanosine diphosphate (GDP; Sigma Aldrich, cat #G7127, St. Louis, MO), and 2.5 mg/mL of WGA PVT SPA beads in complete buffer. Assay plates were then sealed and incubated at room temperature with gentle agitation for 30 minutes. Next, 40 μL/well of 1 nM of [^35S]-GTPγS (PerkinElmer, cat #NEG030X250UC, Waltham, MA) in basic assay buffer (20 mM HEPES, 10 mM MgCl2, 100 mM NaCl, and 1 mM EDTA, pH7.4) was added to the assay plates to yield a final concentration of 200 pM and the plates were further incubated for 40 minutes at room temperature with gentle agitation. The assay was terminated by centrifugation of the plates at 1000 rpm for 3 minutes using an Eppendorf 5810R centrifuge (Eppendorf, Hamburg, Germany) and G protein bound radioactivity was quantitated using a MicroBeta2 microplate scintillation counter (PerkinElmer, Waltham, MA). As G protein bound radioactivity directly correlates to receptor activation and coupling to the G protein, this assay is a measure of S1P5 agonism.
On the technique in general: GTPγS resists hydrolysis and so accumulates on activated G proteins.

Sequence of S1P5 (Q9H228 whole entry, species assumed): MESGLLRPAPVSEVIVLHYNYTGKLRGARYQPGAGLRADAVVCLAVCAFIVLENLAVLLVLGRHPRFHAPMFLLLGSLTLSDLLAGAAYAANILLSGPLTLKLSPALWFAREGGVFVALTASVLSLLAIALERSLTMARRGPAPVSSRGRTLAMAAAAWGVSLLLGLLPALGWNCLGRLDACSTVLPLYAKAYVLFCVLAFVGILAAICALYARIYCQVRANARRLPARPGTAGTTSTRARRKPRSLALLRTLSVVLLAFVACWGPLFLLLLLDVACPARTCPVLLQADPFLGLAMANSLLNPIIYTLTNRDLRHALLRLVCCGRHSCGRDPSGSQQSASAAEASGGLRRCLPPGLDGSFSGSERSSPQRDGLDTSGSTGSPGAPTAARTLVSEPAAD

Take `COC1CCN(C(=O)C2CCN(Cc3c(C)cc(C4CN(c5c(Cl)cccc5Cl)C4)cc3C)CC2)CC1` [Compound 14, (1-(4-(1-(2,6-dichlorophenyl)-azetidin-3-yl)-2,6-dimethyl-benzyl)-piperidin-4-yl)(4-methoxy-piperidin-1-yl)-methanone]: the EC50 fell in the range of 100 to 1000 nM.
Turning to `Cc1cc(C2CN(c3c(Cl)cccc3Cl)C2)cc(C)c1CN1CCC(C(=O)NC2CCCC2)CC1` [Compound 15, N-cyclopentyl-1-(4-(1-(2,6-dichlorophenyl)-azetidin-3-yl)-2,6-dimethylbenzyl)-piperidine-4-carboxamide], the EC50 was 1000 to 10000 nM.
Turning to `Cc1cc(C2CN(c3c(Cl)cccc3Cl)C2)cc(C)c1CN1CCC(C(=O)N(C)C(C)C)CC1` [Compound 16, 1-(4-(1-(2,6-dichlorophenyl)-azetidin-3-yl)-2,6-dimethyl-benzyl)-N-isopropyl-N-meth-yl-piperidine-4-carboxamide], the EC50 fell in the range of 1000 to 10000 nM.
The value for `Cc1cc(C2CN(c3c(Cl)cccc3Cl)C2)cc(C)c1CN1CCC(C(=O)NC2CCCCC2)CC1` [Compound 17, N-cyclohexyl-1-(4-(1-(2,6-dichlorophenyl)azetidin-3-yl)-2,6-dimethylbenzyl)-piperidine-4-carboxamide] was 1000 to 10000 nM; that for `Cc1cc(C2CN(c3c(Cl)cccc3Cl)C2)cc(C)c1CN1CCC(C(=O)NCC2CCCCC2)CC1` [Compound 18, N-(cyclohexylmethyl)-1-(4-(1-(2,6-dichlorophenyl)-azetidin-3-yl)-2,6-dimethyl-benzyl)piperidine-4-carbox-amide] was 1000 to 10000 nM.
For the compound `Cc1cc(C2CN(c3c(Cl)cccc3Cl)C2)cc(C)c1CN1CCC(C(=O)NCCN2CCCC2)CC1` [Compound 19, 1-(4-(1-(2,6-dichlorophenyl)-azetidin-3-yl)-2,6-dimethyl-benzyl)-N-(2-(pyrrolidin-1-yl)ethyl)-piperidine-4-carbox-amide], the EC50 fell in the range of 1000 to 10000 nM.
The value for `Cc1cc(C2CN(c3c(Cl)cccc3Cl)C2)cc(C)c1CN1CCC(C(=O)NC2CCC(N(C)C)CC2)CC1` (stereo not shown) [Compound 20, 1-(4-(1-(2,6-dichlorophenyl)-azetidin-3-yl)-2,6-dimethyl-benzyl)-N-(4-(dimethyl-amino)-cyclohexyl)piper-idine-4-carboxamide] was 1000 to 10000 nM; that for `Cc1cc(C2CN(c3c(Cl)cccc3Cl)C2)cc(C)c1CN1CCC(C(=O)NCCC(C)C)CC1` [Compound 21, 1-(4-(1-(2,6-dichlorophenyl)-azetidin-3-yl)-2,6-dimethyl-benzyl)-N-isopentyl-piper-idine-4-carboxamide] was 1000 to 10000 nM.
With `Cc1cc(C2CN(c3c(Cl)cccc3Cl)C2)cc(C)c1CN1CCC(C(=O)N2CCC(N(C)C)CC2)CC1` [Compound 22, (1-(4-(1-(2,6-dichlorophenyl)-azetidin-3-yl)-2,6-dimethyl-benzyl)piperidin-4-yl)(4-(dimethylamino)piperidin-1-yl)methanone], the EC50 fell in the range of 1000 to 10000 nM.
The value for `Cc1cc(C2CN(c3c(Cl)cccc3Cl)C2)cc(C)c1CN1CCC(C(=O)N(C)CC(C)C)CC1` [Compound 23, 1-(4-(1-(2,6-dichlorophenyl)-azetidin-3-yl)-2,6-dimethyl-benzyl)-N-isobutyl-N-meth-ylpiperidine-4-carboxamide] was 1000 to 10000 nM; that for `Cc1cc(C2CN(c3c(Cl)cccc3Cl)C2)cc(C)c1CN1CCC(C(=O)N2CCC(O)C2)CC1` (stereo not shown) [Compound 24, (1-(4-(1-(2,6-dichlorophenyl)-azetidin-3-yl)-2,6-dimethyl-benzyl)-piperidin-4-yl)(3-hydroxypyrrolidin-1-yl)-methanone] was 1000 to 10000 nM.
The value for `Cc1cc(C2CN(c3c(Cl)cccc3Cl)C2)cc(C)c1CN1CCC(C(=O)N(C)C2CC2)CC1` [Compound 25, N-cyclopropyl-1-(4-(1-(2,6-dichlorophenyl)-azetidin-3-yl)-2,6-dimethylbenzyl)-N-methylpiperidine-4-carbox-amide] was 1000 to 10000 nM.
With `Cc1cc(C2CN(c3c(Cl)cccc3Cl)C2)cc(C)c1CN1CCC(C(=O)N2CCCCC2)CC1` [Compound 26, (1-(4-(1-(2,6-dichlorophenyl)-azetidin-3-yl)-2,6-dimethyl-benzyl)-piperidin-4-yl)(piper-idin-1-yl)methanone], the EC50 fell in the range of 1000 to 10000 nM.
